Data on four compounds can be found in patent publication EP4678643A1, “KRAS INHIBITOR COMPOUND, PHARMACEUTICAL COMPOSITION THEREOF, AND USE THEREOF” (Sunshine Lake Pharma Co., Ltd., priority 2023, dated 2024).

Data set [1] deals with pERK in H358 cells (KRAS p.G12C). Kind of data set: Inhibitory effect on intracellular pERK by In-Cell Western assay, H358. The format is cell-based. Conditions: Homo sapiens, NCI-H358, pERK inhibition, compound incubation 3 h. As to the method: (§1) 1. Determination of Inhibitory Effect on Intracellular pERK by In-Cell Western Assay
(§2) (1) On the first day, the following cells were revived and cultured with the corresponding culture medium and incubated at 37 °C, 5% CO2 until confluence.
(§3) (2) On the third day, the culture medium was removed, the cells were rinsed once with DPBS, 2 mL of TrypLE™ trypsin was added for digestion, and the cells were placed at room temperature until the cells detached. (3) 5 mL fresh culture medium was added to resuspend cells to terminate the digestion, and the cells were gently pipetted and centrifuged at 1000 rpm for 5 minutes at room temperature. (4) The supernatant was removed, and 5 mL fresh culture medium was added to resuspend the cells and count cells. (5) The cells were plated in a 384-well plate with appropriate cell concentration by adjusting with complete culture medium and incubated at 37 °C, 5% CO2 for overnight. (6) 200 nL of the prepared serial dilution compound (DMSO final concentration was 0.5%) was added and incubated at 37 °C, CO2 for 3 h (HPAC cell lines for 1 h). (7) The cells were fixed. (8) The cells were washed twice with PBS. (9) The blocking solution was added and the cells were incubated at room temperature for 1 h. (10) The blocking solution was removed, and the primary antibody (phospho-ERK Rabbit mAb + GAPDH (D4C6R) Mouse mAb) was added and the cells were incubated at 4 °C for overnight. (11) The cells were washed twice with PBST (PBS + 0.05% Tween 20) for 2 minutes each time. (12) PBST was removed and secondary antibody (IRDye 800CW Goat anti-Rabbit IgG (H+L) + IRDye 680RD Goat anti Mouse IgG (H+L)) was added and incubated away from light at room temperature. (14) Secondary antibody was discarded and the cell was washed twice with PBST, 2 minutes each time. (15) 384-well plate was inverted and centrifuged at 1000 rpm at room temperature for 1 minute, and the 384-well plate was scanned with Odyssey CLx. (16) Data analysis: • a) Assay stability check was peformed by using DMSO and reference control data: [formula] [formula] • b) nonlinear fitting of Compound IC50: Y = Bottom + (Top−Bottom)/(1+10^(∧)((LogIC50−X)×HillSlope)). [formula]

The subject of data set [2] is pERK in MKN1 cells (KRAS WTdep). The experiment in a line: Inhibitory effect on intracellular pERK by In-Cell Western assay, MKN1. The class given is cell-based. Conditions: Homo sapiens, MKN-1, pERK inhibition, compound incubation 3 h. As to the method:
as §1, §2, §3

For data set [3], the system named is pERK in HPAC cells (KRAS p.G12D). Kind of data set: Inhibitory effect on intracellular pERK by In-Cell Western assay, HPAC. The class given is cell-based. Conditions: Homo sapiens, pERK inhibition, compound incubation 1 h, read-out: HPAC, IC50 (nM) KRASp.G12D. As to the method:
as §1, §2
as §3, with “[formula] • b) nonlinear fitting of Compound IC50: Y = Bottom + (Top−Bottom)/(1+10^(∧)((LogIC50−X)×HillSlope)). [formula]” left out

For data set [4], the system named is pERK in NCI-H727 cells (KRAS p.G12V). The experiment in a line: Inhibitory effect on intracellular pERK by In-Cell Western assay, NCI-H727. The class given is cell-based. Conditions: Homo sapiens, pERK inhibition, compound incubation 3 h. As to the method:
as §1, §2
as §3, with “[formula] • b) nonlinear fitting of Compound IC50: Y = Bottom + (Top−Bottom)/(1+10^(∧)((LogIC50−X)×HillSlope)). [formula]” left out

Data set [5] has as its system pERK in A549 cells (KRAS p.G12S). Kind of data set: Inhibitory effect on intracellular pERK by In-Cell Western assay, A549. The class given is cell-based. Conditions: Homo sapiens, pERK inhibition, compound incubation 3 h. As to the method: as §1, §2, §3
For data set [6], the system named is pERK in HCT 116 cells (KRAS p.G13D). The experiment in a line: Inhibitory effect on intracellular pERK by In-Cell Western assay, HCT 116. The class given is cell-based. Conditions: Homo sapiens, pERK inhibition, compound incubation 3 h. How it is done: as §1, §2, §3
The test system of data set [7] is pERK in AGS cells (KRAS G12D). Kind of data set: Inhibitory effect on intracellular pERK by In-Cell Western assay, AGS. The format is cell-based. Conditions: pERK inhibition, compound incubation 3 h, read-out: AGS, IC50 (nM) KRAS p.G12D. How it is done: as §1, §2
as §3, with “CLx.” for “CLx. (16) Data analysis: • a) Assay stability check was peformed by using DMSO and reference control data: [formula] [formula] • b) nonlinear fitting of Compound IC50: Y = Bottom + (Top−Bottom)/(1+10^(∧)((LogIC50−X)×HillSlope)). [formula]”

Another data set has as its target KRAS G12D-GTP & cRAF (Homo sapiens, UniProt P01116, G12D). Kind of data set: KRAS G12D/cRAF Binding Assay (HTRF). Conditions: competitive binding, 665/615 nm ratio. An excerpt: 2. KRAS G12D/cRAF Binding Assay
(Time-resolved FRET reads energy transfer from a long-lived donor to a nearby acceptor.)

For another data set, the target named is KRAS G12D-GTP & SOS1 (Homo sapiens, UniProt P01116, G12D). The experiment in a line: KRAS G12D/SOS1 Binding Assay (HTRF). Conditions: competitive binding, 665/615 nm ratio. An excerpt:
3. KRAS G12D/SOS1 Binding Assay

For data set [8] the following is noted: mouse, in vivo.
Experimental: (§4) Pharmacokinetic evaluation of the compounds of the present invention by intravenous injection or oral gavage in mice
(§5) The inventors conducted a pharmacokinetic evaluation of the compounds of this invention in mice.
(§6) The compounds of the present invention were administered to test animals in the form of a solution of 5% DMSO + 30% PEG400 + 65% saline, 10% DMSO + 10% Kolliphor HS15 + 80% Saline, 10% DMSO + 89% (25% SBE-B-CD) + (2% HCl), 20% PEG400 + 80% sterile water for injection, or 10% DMA + 10% HS15 + 30% PEG400 + 50% sterile water for injection. The animals were fasted for 12 hours before administration and had free access to water. For the intravenous administration group, the dose was 2 mg/kg/day, qd. Venous blood samples (approximately 0.15 mL) were collected at the following time points after administration: 0.083, 0.25, 0.5, 1.0, 2.0, 5.0, 7.0 and 24 hours. EDTA-K2 was pre-added to the blood collection tube as an anticoagulant. Blood samples were centrifuged at 12,000 rpm for 2 minutes, and plasma was collected and stored at -20°C or -70°C. For the intravenous administration group, the dose was 5 mg/kg/day, qd. Venous blood samples (approximately 0.15 mL) were collected at the following time points after administration: 0.25, 0.5, 1.0, 2.0, 5.0, 7.0 and 24 hours. EDTA-K2 was pre-added to the blood collection tube as an anticoagulant. Blood samples were centrifuged at 12,000 rpm for 2 minutes, and plasma was collected and stored at -20°C or -70°C.
(§7) The collected plasma samples were processed (frozen plasma was thawed at room temperature and vortexed for 15 seconds. 10-20 µL of plasma was added to 120-150 µL of acetonitrile solution containing the internal standard and vortexed for 5 minutes. The sample was centrifuged at 4,000 rpm for 5 minutes. 100 µL of the supernatant was added to 120-150 µL of methanol/water (v/v = 1/1) and mixed). The concentrations of the compounds in the plasma were analyzed by LC-MS/MS.
A short description of a further data set: in vivo. Conditions: mouse.

In general, IC50 refers to the midpoint of a concentration-inhibition curve. For orientation: AUC(0-inf) means the area under the concentration-time curve extrapolated to infinity. By AUC(0-t) is commonly meant exposure summed from dosing to a finite time, without extrapolation to infinity. A high value points to high exposure. Usually Cmax stands for the peak of the concentration-time curve. As usually defined, the MRT last is a mean duration of stay, worked out from the concentration-time curve. The term Tmax denotes the time at which the peak concentration occurs. As usually defined, the Vd is the apparent volume that relates the amount in the body to the concentration in plasma or blood. As usually defined, the clearance is a measure of how efficiently the substance is removed, as volume per time. The low end stands for a low capacity for elimination, the high end for a high capacity for elimination. For orientation: half-life means how long it takes for the measured level to halve.

Like-named read-outs stand apart in the source and are kept apart here.

KRAS G12D-GTP & cRAF, sequence (P01116 1-188 isoform P01116-2 G12D): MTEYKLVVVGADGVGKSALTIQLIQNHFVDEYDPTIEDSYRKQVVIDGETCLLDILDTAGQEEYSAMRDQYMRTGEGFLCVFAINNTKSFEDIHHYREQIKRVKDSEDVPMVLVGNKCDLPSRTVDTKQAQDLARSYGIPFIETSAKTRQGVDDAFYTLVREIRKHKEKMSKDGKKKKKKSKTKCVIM
KRAS G12D-GTP & SOS1, sequence (P01116 1-188 isoform P01116-2 G12D): as above
Experimental for in vivo: as §4, §5, §6, §7

Take `C#Cc1c(F)ccc2cc(O)cc(-c3nc(C#CC)c4c(N5CCCOCC5)nc(OCC56CCCN5CC(F)C6)nc4c3F)c12` (stereo not shown) [Compound 1]: the IC50 worked out at 0.4 nM in [1]; 1.9 nM in data set [2]; 0.3 nM in data set [3]; 1 nM in data set [4]; 0.6 nM in data set [5]; 2.1 nM in [6]. Moreover, the values for the IC50 (in data set [7]; at KRAS G12D-GTP & cRAF; at KRAS G12D-GTP & SOS1) were 0.2 nM, 7.9 nM and 16.3 nM, respectively. In addition, the “pharmacokinetic properties in mice” value in data set [8] is given as “good pharmacokinetic properties”.
With `CC#Cc1nc(-c2cc(O)cc3ccc(F)c(CC)c23)c(F)c2nc(OCC34CCCN3CC(F)C4)nc(N3CCCOCC3)c12` (stereo not shown) [Compound 2], the IC50 in [1] amounted to 2 nM; in [2], 6.4 nM; in data set [3], 1.6 nM; in [4], 4.8 nM; in data set [7] (Homo sapiens, AGS, 3 h) it was 2.2 nM; on KRAS G12D-GTP & cRAF, 13.7 nM. For the same compound, the IC50 at KRAS G12D-GTP & SOS1 stood at 20.8 nM.
In turn, `C#Cc1c(F)ccc2cc(O)cc(-c3nc(C#CCC)c4c(N5CCCCC(F)C5)nc(OC[C@@]56CCCN5C[C@H](F)C6)nc4c3F)c12` (stereo partly shown) [Compound 26] showed a half-maximal inhibitory concentration (IC50) in data set [1] of 3.9 nM. Moreover, half-maximal inhibition in data set [2] (IC50) was put at 21.5 nM. Besides, half-maximal inhibition in [5] (IC50) was put at 15.1 nM. This compound also had a half-maximal inhibitory concentration (IC50) in data set [6] of 47.3 nM. Further, the half-maximal inhibitory concentration (IC50) in [7] (Homo sapiens, AGS, 3 h) worked out at 3.2 nM. Besides, in the data set “in vivo” (iv, 2 mg/kg/day), the total exposure AUC(0-inf) worked out at 8110 ng·h/mL, the exposure AUC(0-t) is 8050 ng·h/mL, the concentration peaked (Cmax) at 8280 ng/mL and the MRT last was 1.2 h. In “in vivo” (iv, 2 mg/kg/day), the Tmax stood at 0.083 h, the distribution volume (Vd) came out at 0.3 L/kg, the clearance turned out to be 4.1 mL/min/kg and the half-life was 1 h. In the data set “in vivo” (po, 5 mg/kg/day), this compound came in with an area under the curve AUC(0-inf) of 4240 ng·h/mL, an AUC(0-t) of 4120 ng·h/mL, a maximum concentration (Cmax) of 1630 ng/mL and an MRT last of 1.8 h. Further, in the data set “in vivo” (po, 5 mg/kg/day), the time to peak (Tmax) was 0.5 h and the half-life was 1.3 h.
`C#Cc1c(F)ccc2cc(O)cc(-c3nc(C#CCC)c4c(N5CCCOCC5)nc(OCC56CCCN5CC(F)C6)nc4c3F)c12` (stereo not shown) [Compound 3]: the IC50 amounted to 0.7 nM in [1]; 3.7 nM in [2]; 0.6 nM in data set [3]; 2.2 nM in [4]; 0.5 nM in [7] (Homo sapiens, AGS, 3 h); 7.4 nM at KRAS G12D-GTP & cRAF. Besides, the IC50 on KRAS G12D-GTP & SOS1 worked out at 14.8 nM.
